Source: ChEMBL document CHEMBL3885881, “DrugMatrix”

Organism: Rattus norvegicus
Test: DrugMatrix - Regimen: Daily Repeat
Type: toxicity, organism-based, Sprague-Dawley
Set-up: regimen Daily Repeat, gender Male, age 6-8 weeks
Settings: in vivo, po, route oral GAVAGE, vehicle 100 % SALINE; for ABSOLUTE BASOPHIL / ABSOLUTE EOSINOPHIL / ABSOLUTE LYMPHOCYTE / ABSOLUTE MONOCYTE / ABSOLUTE SEGMENTED NEUTROPHIL / BASOPHIL / EOSINOPHIL / ERYTHROCYTE COUNT / HEMOGLOBIN / LEUKOCYTE COUNT / LYMPHOCYTE / MEAN CORPUSCULAR HEMOGLOBIN / MEAN CORPUSCULAR HEMOGLOBIN CONCENTRATION / MEAN CORPUSCULAR VOLUME / MONOCYTE / NEUTROPHIL / NUCLEATED RED BLOOD CELLS / PLATELET COUNT / HEMATOCRIT: tissue Blood
[1] = 200 mg/kg, 120 h, dose level Low, time 5 day
[2] = 200 mg/kg, 120 h, tissue Plasma, dose level Low, time 5 day
[3] = 600 mg/kg, 72 h, dose level High, time 3 day
[4] = 600 mg/kg, 72 h, tissue Plasma, dose level High, time 3 day
[5] = 600 mg/kg, 120 h, dose level High, time 5 day
[6] = 600 mg/kg, 120 h, tissue Plasma, dose level High, time 5 day

Substance: LEAD(IV) ACETATE
- ABSOLUTE BASOPHIL [1]: 0 CELLS/uL
- ABSOLUTE EOSINOPHIL [1]: 0 CELLS/uL
- ABSOLUTE LYMPHOCYTE [1]: 11837.33 CELLS/uL
- ABSOLUTE MONOCYTE [1]: 82.67 CELLS/uL
- ABSOLUTE SEGMENTED NEUTROPHIL [1]: 680 CELLS/uL
- BASOPHIL [1]: 0%
- EOSINOPHIL [1]: 0%
- ERYTHROCYTE COUNT [1]: 5.76 x10E6/uL
- HEMOGLOBIN [1]: 13.8 G/DL
- LEUKOCYTE COUNT [1]: 12.6 x10E3/uL
- LYMPHOCYTE [1]: 93.67%
- MEAN CORPUSCULAR HEMOGLOBIN [1]: 23.93 pg
- MEAN CORPUSCULAR HEMOGLOBIN CONCENTRATION [1]: 39.23 G/DL
- MEAN CORPUSCULAR VOLUME [1]: 61.03 fL
- MONOCYTE [1]: 0.67%
- NEUTROPHIL [1]: 5.67%
- NUCLEATED RED BLOOD CELLS [1]: 0.33 /100WBC
- PLATELET COUNT [1]: 1075 x10E3/uL
- ALANINE AMINOTRANSFERASE [2]: 43.33 u/L
- ALKALINE PHOSPHATASE [2]: 339 u/L
- ASPARTATE AMINOTRANSFERASE [2]: 80 u/L
- BLOOD UREA NITROGEN [2]: 13.33 mg/dL
- CARBON DIOXIDE [2]: 33 mmol/L
- CHLORIDE [2]: 99 MEQ/L
- CHOLESTEROL [2]: 74.67 mg/dL
- CREATINE PHOSPHOKINASE [2]: 263.33 u/L
- CREATININE [2]: 0.31 mg/dL
- GLUCOSE [2]: 134 mg/dL
- LACTATE DEHYDROGENASE [2]: 132.67 u/L
- LIPASE [2]: 14.33 u/L
- PHOSPHORUS [2]: 11.33 mg/dL
- POTASSIUM [2]: 5.88 MEQ/L
- SODIUM [2]: 146.7 MEQ/L
- TOTAL BILIRUBIN [2]: 0.17 mg/dL
- TOTAL PROTEIN [2]: 6.4 G/DL
- URIC ACID [2]: 0.57 mg/dL
- ABSOLUTE BASOPHIL [3]: 0 CELLS/uL
- ABSOLUTE EOSINOPHIL [3]: 0 CELLS/uL
- ABSOLUTE LYMPHOCYTE [3]: 6951.33 CELLS/uL
- ABSOLUTE MONOCYTE [3]: 49.33 CELLS/uL
- ABSOLUTE SEGMENTED NEUTROPHIL [3]: 532.67 CELLS/uL
- BASOPHIL [3]: 0%
- EOSINOPHIL [3]: 0%
- ERYTHROCYTE COUNT [3]: 5.19 x10E6/uL
- HEMATOCRIT [3]: 32%
- HEMOGLOBIN [3]: 12.7 G/DL
- LEUKOCYTE COUNT [3]: 7.53 x10E3/uL
- LYMPHOCYTE [3]: 92%
- MEAN CORPUSCULAR HEMOGLOBIN CONCENTRATION [3]: 39.7 G/DL
- MONOCYTE [3]: 0.67%
- NEUTROPHIL [3]: 7.33%
- NUCLEATED RED BLOOD CELLS [3]: 0 /100WBC
- PLATELET COUNT [3]: 1337.33 x10E3/uL
- ALANINE AMINOTRANSFERASE [4]: 41.67 u/L
- ALBUMIN [4]: 4 G/DL
- ALKALINE PHOSPHATASE [4]: 253 u/L
- ASPARTATE AMINOTRANSFERASE [4]: 83 u/L
- BLOOD UREA NITROGEN [4]: 10.33 mg/dL
- CARBON DIOXIDE [4]: 27 mmol/L
- CHOLESTEROL [4]: 81.33 mg/dL
- CREATINE PHOSPHOKINASE [4]: 396 u/L
- CREATININE [4]: 0.38 mg/dL
- LACTATE DEHYDROGENASE [4]: 126.67 u/L
- LIPASE [4]: 11.33 u/L
- POTASSIUM [4]: 5.16 MEQ/L
- TOTAL BILIRUBIN [4]: 0.1 mg/dL
- URIC ACID [4]: 0.83 mg/dL
- ABSOLUTE BASOPHIL [5]: 0 CELLS/uL
- ABSOLUTE EOSINOPHIL [5]: 0 CELLS/uL
- ABSOLUTE LYMPHOCYTE [5]: 13230 CELLS/uL
- ABSOLUTE MONOCYTE [5]: 139 CELLS/uL
- ABSOLUTE SEGMENTED NEUTROPHIL [5]: 1031 CELLS/uL
- BASOPHIL [5]: 0%
- EOSINOPHIL [5]: 0%
- ERYTHROCYTE COUNT [5]: 6.04 x10E6/uL
- HEMATOCRIT [5]: 35.43%
- HEMOGLOBIN [5]: 13.83 G/DL
- LEUKOCYTE COUNT [5]: 14.4 x10E3/uL
- LYMPHOCYTE [5]: 92%
- MEAN CORPUSCULAR HEMOGLOBIN [5]: 22.97 pg
- MEAN CORPUSCULAR HEMOGLOBIN CONCENTRATION [5]: 39.07 G/DL
- MEAN CORPUSCULAR VOLUME [5]: 58.67 fL
- MONOCYTE [5]: 1%
- NEUTROPHIL [5]: 7%
- NUCLEATED RED BLOOD CELLS [5]: 0.33 /100WBC
- PLATELET COUNT [5]: 1226 x10E3/uL
- ALANINE AMINOTRANSFERASE [6]: 46.33 u/L
- ALKALINE PHOSPHATASE [6]: 257 u/L
- ASPARTATE AMINOTRANSFERASE [6]: 82 u/L
- BLOOD UREA NITROGEN [6]: 11.67 mg/dL
- CARBON DIOXIDE [6]: 35 mmol/L
- CHLORIDE [6]: 97.67 MEQ/L
- CHOLESTEROL [6]: 86 mg/dL
- CREATINE PHOSPHOKINASE [6]: 294 u/L
- CREATININE [6]: 0.19 mg/dL
- LACTATE DEHYDROGENASE [6]: 99 u/L
- PHOSPHORUS [6]: 10.3 mg/dL
- POTASSIUM [6]: 5.89 MEQ/L
- TOTAL BILIRUBIN [6]: 0.13 mg/dL
- TOTAL PROTEIN [6]: 6 G/DL
- URIC ACID [6]: 0.7 mg/dL
